From patent US20040106673A1, “Compositions and methods for inhibiting proliferation in human prostate cancer cells” (priority 2002, published 2004)
Where “and” joins values, the source holds several entries; their conditions need not be identical. Equal values may be shown once.

Experiments:
LNCaP cells [1] = test: Number of viable LNCaP cells (trypan blue exclusion); format: cell-based, human; details: for effect on LNCaP cell growth (FIG. 2): TPA alone 0.32 nM, ATRA alone 0.5 to 10 μM, or 0.32 nM TPA with increasing ATRA
Procedure: LNCaP cells were seeded in culture dishes and incubated for 24 hours to allow the cells to attach to the culture dishes. The cells were then treated with ethanol (2 μl/ml) or TPA in ethanol (0.2 to 10 ng/ml) for 96 hours.
The number of viable and dead cells was determined by trypan blue exclusion. […] The concentration of TPA that caused a 50% inhibition of LNCaP cell growth was 3 nM (IC50). The IC50 for TPA varied between 1 and 3 nM in different experiments.
(§1) LNCaP cells were obtained from the American Type Culture Collection (Rockville, Md., USA). TPA was obtained from Alexis Co. (San Diego, Calif.). ATRA was obtained from Sigma Chemical Co. (St. Louis, Mo.). LNCaP cells were maintained in RPMI-1640 culture medium containing 10% fetal bovine serum that was supplemented with penicillin (100 units/ml), streptomycin (100 μg/ml) and L-glutamine (300 μg/ml) as described (Zheng, X. et al. 2000. Oncol. Res. 12:419=427). Cultured cells were grown at 37° C. in a humidified atmosphere of 5% CO2 and were passed twice a week. In all experiments, LNCaP cells were initially seeded at a density of 1×10^5 cells/ml in a final volume of 2 or 5 ml in 35 or 60 mm tissue culture dishes, respectively.
To quantify the number of viable cells after each treatment, cells were counted using a hemacytometer under a light microscope. Cell viability was determined by the trypan blue exclusion assay, which was done by mixing 80 μl of cell suspension and 20 μl of 0.4% trypan blue solution for 2 minutes.

LNCaP tumors [2] = test: Mitotic cells and caspase 3 (active form) immunostaining in LNCaP tumors from treated mice; format: in vivo, male NCr mice; details: mice treated for 46 days
Procedure: (§2) Tumor size and body weight were measured daily.
Tumor sections used were stained by the horseradish peroxidase-conjugated-avidin method. Endogenous peroxidase was blocked by incubating the tissue sections in 3% hydrogen peroxide in methanol for 30 minutes at room temperature. Sections were then treated with 0.01 M sodium citrate buffer (pH 6.0) in a microwave oven at high temperature for 10 minutes. The sections were incubated with a protein block (normal goat serum) for 10 minutes, followed by avidin D for 15 minutes and biotin blocking solution for 15 minutes at room temperature. The sections were incubated with caspase 3 primary antibody (1:2000 dilution) for 30 minutes at room temperature followed by incubation with a biotinylated anti-rabbit secondary antibody for 30 minutes and incubation with conjugated-avidin solution for 30 minutes. Color development was achieved by incubation with 0.02% 3,3′-diaminobenzidine tetrahydrochloride containing 0.02% hydrogen peroxide for 10 minutes at room temperature. The slides were then counterstained with hematoxylin, dehydrated and coverslips were added for permanent mounting. A positive reaction was shown as a light brown to dark brown precipitate in the cytoplasm and/or perinuclei of the cells.

LNCaP tumors [3] = test: Second in vivo study: TPA, ATRA or both i.p. in NCr mice with LNCaP tumors, 21 or 46 days; details: for % of Mice with Tumor Growth / % of Mice with Tumor Regression: i.p.; for percent of initial tumor size: TPA 0.16 nmol/g
Procedure: Tumor cell growth was measured and expressed as percent of initial size (FIG. 3). […] In this table, mice in Group A (13 mice/group) were treated for 21 days, while mice in Group B (6 mice/group) were a subset of the original group and were treated for an additional 25 days.
The effect of the 21 day treatments on body weight was examined in order to determine if there was the same level of toxicity seen in the first animal study.
The results from the Group B animals were analyzed separately.
Male Ncr immunodeficient mice (6 to 7 weeks old) were obtained from Taco Farms (Germantown, N.Y.). The animals were housed in sterile filter-capped microisolator cages and provided with sterilized food and water. Prostate cancer cells (2×10^6 cells/0.1 ml/mouse) suspended in 50% matrigel (Collaborative Research, Bedford, Mass.) in RPMI 1640 medium were injected subcutaneously into the right flank of the mice. After 4 to 6 weeks, mice with well-established tumors (0.65 to 1 cm by 0.65 to 1 cm) were used for the various experiments. In all experiments, animals received the same volume of injections (5 μl/g body weight). Tumor size and body weight were measured daily. At the end of a study, mice were sacrificed by decapitation, tumors were excised, weighed, and placed in phosphate-buffered formalin for 48 hr at room temperature and then placed in ethanol for 48 hr before preparing paraffin sections.

LNCaP cells [4] = test: Flow cytometry (propidium iodide): cell cycle distribution and apoptosis in cultured LNCaP cells; format: cell-based, human; details: for apoptotic cells (percent of pre-G0/G1 cells): single drug, TPA 0.16 or 0.32 nM
Procedure: as §1, with “ATRA was obtained from Sigma Chemical Co. (St. Louis, Mo.).” left out
To perform the analysis, 1×10^6 cells were washed with phosphate-buffered saline (PBS) and resuspended in 500 μl of stain solution (20 mg/ml polyethylene glycol 8000, 50 μg/ml propidium iodide, 0.1% Triton-X-100, and 0.4 M sodium chloride). The mixture was incubated at 4° C. overnight in the dark before being analyzed on a Coulter Epics-Profile II flow cytometer. Propidium iodide is a fluorescent dye that intercalates into the DNA double helix. Whether cells are in the G1 phase where they have two copies of their genome or in the G2/M phase where they have 4 copies of their genome, or in the S phase where their DNA is between the two states, can be determined by the amount of propidium iodide that intercalates into the DNA. Pre G0/G1 cells were considered apoptotic cells. The proportion of cells in each phase of the cell cycle was calculated using the cytologic software provided.

[5] = doses of TPA in the range of 0.25 to 1 mg; cited from earlier work
LNCaP tumors [6] = test: First in vivo study: TPA i.p. in NCr mice with LNCaP tumors, 13 days; parameters: species or system male NCr mice
Procedure: With the feasibility of the use of TPA by i.p. injection now established, male NCr mice were injected subcutaneously with LNCaP cells in matragel. […] On day 3, the dose of TPA was increased (0.32 nmol/g; 5 μl vehicle/g body weight) and this dose level was administered i.p. for 11 days. The length and width of each tumor was measured at the start of the study and during treatment with TPA. Tumor size was expressed as cm^2 (length×width). There was a statistically significant inhibition of tumor cell growth in the TPA treated animals. The average tumor size in the vehicle-treated control group increased to about 200% of the initial tumor size while the average tumor size after 13 days of treatment with TPA was about 95% of the initial tumor size.
as §2

[7] = Blood levels of TPA after i.p. injection in NCr mice (HL-60 differentiation bioassay); format: in vivo, male NCr mice
Procedure: Immunodeficient male NCr mice were used as they are a well-established mouse model for examination of human tumor cell growth. […] TPA was administered in a vehicle that consisted of propylene glycol, polysorbate 80, benzyl alcohol, ethanol, and water (40:0.5:1:10:48.5). Peak blood levels of TPA were in the range of 3 ng/ml (4.8 nM) after a 200 ng/g injection and 1 ng/ml (1.7 nM) after a 100 ng/g injection.
The concentration of TPA in blood after an i.p. injection of TPA was measured by a bioassay that quantifies ethyl acetate-extractable differentiating activity in blood (Cui, X. X. et al. 2002. Oncol. Res. 13:169-174). Differentiating activity was measured in HL-60 cells. […] Although blood levels of bioactive material are expressed as ng of TPA/ml blood, the assay could include biologically active metabolites.

[8] = TPA 0.32 nM, ATRA 1 μM, 96 hours
[9] = entire 46 day treatment interval (Group B), ATRA 0.5 nmol/g
[10] = Treatment for 48 Hours, TPA 1 ng/ml, Taxol 5 ng/ml
[11] = Treatment for 96 Hours, TPA 1 ng/ml, Taxol 5 ng/ml

SMILES	# Visible Cells (1 × 10^5) (LNCaP cells [1]; [8])	effect on LNCaP cell growth (FIG. 2) (LNCaP cells [1])	% Caspase 3 Positive Cells (LNCaP tumors [2])	% Mitotic Cells (LNCaP tumors [2])	% of Mice with Tumor Growth (LNCaP tumors [3]; Group A, 21 days)	% of Mice with Tumor Regression (LNCaP tumors [3]; Group A, 21 days)	% of Mice with Tumor Growth (LNCaP tumors [3]; Group B, 46 days)	% of Mice with Tumor Regression (LNCaP tumors [3]; Group B, 46 days)	percent of initial tumor size (LNCaP tumors [3]; [9])	% Apoptotic Cells (LNCaP cells [4]; [8])	% Cells in G0/G1 (LNCaP cells [4]; [8])	% Cells in G2/M (LNCaP cells [4]; [8])	% Cells in S (LNCaP cells [4]; [8])	apoptotic cells (percent of pre-G0/G1 cells) (LNCaP cells [4]; 96 hours, ATRA 1 μM)	# Visible Cells (1 × 10^5) (LNCaP cells [1]; [10])	# Visible Cells (1 × 10^5) (LNCaP cells [1]; [11])	% Apoptotic Cells (LNCaP cells [4]; [10])	% Cells in G0/G1 (LNCaP cells [4]; [10])	% Cells in G2/M (LNCaP cells [4]; [10])	% Cells in S (LNCaP cells [4]; [10])	further results
CC1=C(/C=C/C(C)=C/C=C/C(C)=C/C(=O)O)C(C)(C)CCC1 [ATRA, all-trans-retinoic acid]	11.1 1 × 10^5	little effect on LNCaP cell growth	0.35 ± 0.03%	0.54 ± 0.04%	69%	31%	83%	17%	159.2±27.0%	3.5%	73.3%	8.2%	14.8%	same low level of apoptotic cells	–	–	–	–	–	–	rate of tumor growth at later time intervals (FIG. 5) (LNCaP tumors [3]; Group B, 46 days, ATRA 0.5 nmol/g): about the same rate as tumors in the vehicle control group
CCCCCCCCCCCCCC(=O)O[C@@H]1[C@@H](C)[C@@]2(O)[C@@H](C=C(CO)C[C@]3(O)C(=O)C(C)=C[C@@H]23)[C@@H]2C(C)(C)[C@]12OC(C)=O [TPA, 12-O-tetradecanoylphorbol-13-acetate]	6.9 1 × 10^5	slight inhibitory effect on cell growth	0.45 ± 0.03 %	0.50 ± 0.05%	38%	62%	33%	67%	106.1±21.0%	5.4%	69.7%	8.7%	15.9%	same low level of apoptotic cells	3.7 1 × 10^5	3.2 1 × 10^5	10.1%	77.8%	5.5%	13.0%	apoptotic cell morphology (LNCaP cells [1]; 3.2 nM TPA): morphologically distinct apoptotic cells; toxicity in humans [5]: only vein irritation and transient fever, and an occasional incidence of transient dyspnea; Ratio of Mitotic Cells/Caspase 3 Cells (LNCaP tumors [2]): 1.13 ± 0.11; toxicity (LNCaP tumors [6]; 13 days, TPA 0.16 then 0.32 nmol/g i.p. once a day): excessive toxicity (decreased body weight and one death on day 14 of the study); average tumor size, % of the initial tumor size (LNCaP tumors [6]; after 13 days, TPA 0.16 nmol/g for 2 days then 0.32 nmol/g for 11 days, i.p.): about 95%; peak blood level of TPA ([7]; after a 100 ng/g i.p. injection): ~1 ng/ml and ~1.7 nM; peak blood level of TPA ([7]; after a 200 ng/g i.p. injection): about 3 ng/ml and ~4.8 nM; time of peak blood levels ([7]; i.p. 100 or 200 ng TPA per gram of body weight): 30 to 60 min; TPA in blood at 8, 12 or 24 hours ([7]; i.p. injection of 100 ng/g TPA): No TPA was detectable; TPA in blood at 8 and 24 hours ([7]; i.p. injection of 200 ng/g TPA): Measurable blood levels of TPA; half-life of TPA ([7]; i.p., NCr mice): 3 to 6 h; percent of initial tumor size (LNCaP tumors [3]; 21 days, once a day i.p., ATRA 0.5 nmol/g): 96.4±3.1%; effect on body weight (LNCaP tumors [3]; treated for 46 days): significant decreases in body weight; % Apoptotic Cells (LNCaP cells [4]; [11]): 11.2%; % Cells in G0/G1 (LNCaP cells [4]; [11]): 66.7%; % Cells in G2/M (LNCaP cells [4]; [11]): 9.5%; % Cells in S (LNCaP cells [4]; [11]): 12.3%
CC(=O)O[C@H]1C(=O)[C@@]2(C)[C@H]([C@H](OC(=O)c3ccccc3)[C@]3(O)C[C@H](OC(=O)[C@H](O)[C@@H](NC(=O)c4ccccc4)c4ccccc4)C(C)=C1C3(C)C)[C@]1(OC(C)=O)CO[C@@H]1C[C@@H]2O [Taxol, paclitaxol]	–	–	–	–	–	–	–	–	–	–	–	–	–	–	4.6 1 × 10^5	2.5 1 × 10^5	12.9%	73.0%	6.4%	12.8%	% Apoptotic Cells (LNCaP cells [4]; [11]): 28.4%; % Cells in G0/G1 (LNCaP cells [4]; [11]): 49.7%; % Cells in G2/M (LNCaP cells [4]; [11]): 8.7%; % Cells in S (LNCaP cells [4]; [11]): 12.4%
